Measured values taken from patent US20190388421A1, “NOVEL COMPOUNDS AND PHARMACEUTICAL COMPOSITIONS THEREOF FOR THE TREATMENT OF FIBROSIS” (Galapagos NV, priority 2016, published 2019).

What was measured:
[1] = biological target: T1, human GPCR sphingosine 1-phosphate receptor 5 (S1PR5) (Homo sapiens, UniProt Q9H228); assay: S1PR5 selectivity assay (Ca2+ flux, antagonist, S1PR5 specific agonist trigger); format: cell-based; conditions: S1P5 antagonist EC50, CHO cells overexpressing human S1PR5 and Gq protein
T1 construct: host or cells: CHO
Experimental: (§1) After readout of the agonist activity, the plates are incubated for 15 min at 37° C. and 5% CO2. Then, cells are stimulated with 10 μL Sphingosine-1-Phosphate (S1P) (Avanti Polar lipids-860492P) at its EC80 concentration. Intracellular Ca^2+ changes are immediately measured by reading fluorescence during 3 min (FDSS/μCELL reader). The ratio of the maximal fluorescence over the background fluorescence before compound injection is used to determine compound response.
(§2) For EC50 determination, a 10 point dilution series of compounds starting from 23.3 μM and 20 μM highest final concentration for agonist and antagonist respectively, ⅓ dilution was performed.
(§3) The obtained ratio's for agonist and antagonist readout were normalized versus vehicle and EC100 of S1P as controls for agonist mode and versus vehicle and EC80 of S1P for antagonist mode. From these normalized data EC50 of the compounds are derived.
(§4) To evaluate the selectivity of the compounds for S1PR2 over S1PR1 and S1PR5, a similar assay set up as described above for the S1PR2 calcium flux assays was performed: CHO cells stably overexpressing human GPCR sphingosine 1-phosphate receptor 1 and Gq protein (Euroscreen, FAST-0197A) or overexpressing human GPCR sphingosine 1-phosphate receptor 5 and Gq protein were used (Perkin Elmer, ES-593-A). In case of the S1PR5 assay triggering was done with an S1PR5 specific agonist instead of with S1P (Hobson et al., 2015).

[2] = biological target: T2, human GPCR sphingosine 1-phosphate receptor 1 (S1PR1) (Homo sapiens, UniProt P21453); assay: S1PR1 selectivity assay (Ca2+ flux, antagonist); format: cell-based; conditions: S1P1 antagonist EC50, CHO cells overexpressing human S1PR1 and Gq protein
T2 construct: host or cells: CHO
Experimental: as §1, §2, §3, §4

S1PR2 = biological target: T3, S1PR2 (Homo sapiens, UniProt O95136); assay: GTP-γS binding assay ([35S]GTPγS, S1P at EC80, S1PR2 membranes); format: biochemical; conditions: membranes from stable cell line over expressing S1PR2, read-out: S1PR2 EC
T3 construct: expressed in transfected cells
Experimental: The following assay can be used for determination of S1PR2 activation. The [^35S] GTPγS assay measures the level of G protein activation following agonist occupation of a GPCR, by determining the binding of the non-hydrolysable analog [^35S] GTPγS to Gα subunits.
The assay is performed in a 96 well plate where the following reagents are added. First 50 μL compound is added into the assay plate, followed by addition of 20 μL S1P at EC80 concentration (concentration which gives 80% of the activity of S1PR2). Then, 30 μL of a mixture consisting of membranes-GTPγS-SpA beads is added [mixture consists of 2.5 μg/well membranes derived from stable cell line over expressing S1PR2 (membranes are pre-incubated with 1 μM GDP for 15 min at 4° C.), 0.1 nM [35S]GTPγS (Perkin Elmer, NEG030) and 0.5 mg/well PVT-WGA SpA beads (Perkin Elmer, RPNQ0001)]. All components are diluted in assay buffer containing 20 mM Tris pH 7.5; 10 mM MgCl2; 100 mM NaCl; 0.1% BSA FAF; 50 ug/ml saponin. After an incubation for 4 h at room temperature, plates are centrifuged at 2000 rpm during 20 min. Plates are read on a Topcount reader (Perkin Elmer) immediately after centrifugation (readout time, 1 min/well).

[3] = biological target: T4, human GPCR sphingosine 1-phosphate receptor 2 (S1PR2) (Homo sapiens, UniProt O95136); assay: S1P2 antagonist assay (Ca2+ flux, S1P at EC80); format: cell-based; conditions: CHO-S1PR2 cells, highest concentration 20 μM
T4 construct: host or cells: CHO
Experimental: Triggering of S1PR2 by administration of Sphingosine-1-phosphate leads to a transient increase in intracellular Ca^2+. The Ca^2+ flux assays are measuring the release of Ca^2+ intracellularly by use of a Ca^2+ sensitive fluorescent dye. The assay is firstly run in agonist mode (incubation of compounds alone) to ensure that the Ca^2+ released measured is not caused by the test compound having an agonistic effect. Then the assay is continued in antagonist mode (Sphingosine-1-Phosphate added to incubated medium containing the test compounds).
CHO cells stably overexpressing human GPCR sphingosine 1-phosphate receptor 2 (CHO—S1PR2 Perkin Elmer; ES-594-A) are seeded from a frozen stock in 384 wells sterile microplates (50 μL; 7,500 cells/well) and are incubated overnight at 37° C. and 5% CO2. The next day cells are washed twice with starvation medium (F-12 Ham's medium containing 0.1% BSA (Fatty acid free: FAF)) and left in […] starvation medium for 1 h at 37° C., 5% CO2. After this starvation cells are incubated with […] buffer containing the Ca^2+-sensitive fluorescent dye (0.5 mg Fluo8+125 mg Allura Red in 100 ml of 1% DMSO, in HBSS+20 mM Hepes+5 mM probenecid). The cells are incubated for an additional 1 hour after which 10 μL compounds, diluted in HBSS buffer with 20 mM Hepes and 0.1% BSA (FAF), are added to the cells and intracellular Ca^2+ changes are immediately measured by reading fluorescence during 3 min (FDSS/μCELL reader). The ratio of the maximal fluorescence over the background fluorescence before compound injection is used to determine compound response.
as §1, §2, §3

T4 sequence (O95136 whole entry): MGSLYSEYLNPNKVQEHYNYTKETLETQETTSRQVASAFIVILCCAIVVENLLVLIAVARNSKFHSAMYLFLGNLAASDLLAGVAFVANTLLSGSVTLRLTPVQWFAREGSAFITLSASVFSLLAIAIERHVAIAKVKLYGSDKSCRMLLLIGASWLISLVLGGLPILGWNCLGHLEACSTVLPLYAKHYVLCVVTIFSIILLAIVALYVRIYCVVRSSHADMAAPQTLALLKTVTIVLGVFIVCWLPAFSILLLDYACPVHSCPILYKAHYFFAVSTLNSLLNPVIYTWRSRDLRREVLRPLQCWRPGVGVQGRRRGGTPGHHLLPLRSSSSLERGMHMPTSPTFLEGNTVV
T3 sequence (O95136 whole entry): as above
T2 sequence (P21453 whole entry): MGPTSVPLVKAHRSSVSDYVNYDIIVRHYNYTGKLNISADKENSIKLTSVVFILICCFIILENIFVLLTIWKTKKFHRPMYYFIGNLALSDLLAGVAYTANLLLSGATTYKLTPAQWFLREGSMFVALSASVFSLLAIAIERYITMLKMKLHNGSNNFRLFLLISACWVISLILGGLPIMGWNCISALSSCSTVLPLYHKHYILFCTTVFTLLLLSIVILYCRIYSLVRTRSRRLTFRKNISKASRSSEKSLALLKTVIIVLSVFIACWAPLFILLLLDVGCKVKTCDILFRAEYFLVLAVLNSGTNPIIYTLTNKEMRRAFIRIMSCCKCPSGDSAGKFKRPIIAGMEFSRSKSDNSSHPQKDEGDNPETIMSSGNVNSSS
T1 sequence (Q9H228 whole entry): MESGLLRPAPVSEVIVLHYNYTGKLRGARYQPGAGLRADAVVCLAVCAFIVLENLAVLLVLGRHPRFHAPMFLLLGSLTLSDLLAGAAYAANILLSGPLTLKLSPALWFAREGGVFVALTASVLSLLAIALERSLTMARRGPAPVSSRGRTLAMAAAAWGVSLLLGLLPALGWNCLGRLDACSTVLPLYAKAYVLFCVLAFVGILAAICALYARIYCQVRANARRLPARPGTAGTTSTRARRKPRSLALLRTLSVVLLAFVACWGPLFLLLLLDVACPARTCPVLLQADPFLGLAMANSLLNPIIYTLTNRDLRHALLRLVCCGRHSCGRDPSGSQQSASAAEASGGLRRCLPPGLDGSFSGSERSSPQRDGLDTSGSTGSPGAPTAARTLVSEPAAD

SMILES	EC50 [1] [µM]	EC50 [2] [µM]	EC50 (S1PR2) [nM]	EC50 [3] [nM]
CCOc1cc(NC(=O)NCc2cc(C)c(N3CC(C)O[C@H](C)C3)nn2)cc(C(F)(F)F)n1 (stereo in doubt) [Compound 100, 1-[[6-[(2R,6S)-2,6-dimethyl-morpholin-4-yl]-5-methyl-pyridazin-3-yl]methyl]-3-(2-ethoxy-6-(trifluoromethyl)-4-pyridyl]urea]	2.48	6.61		
Cc1cc(CNC(=O)Nc2cnc(OCC(F)F)c(C(F)(F)F)c2)nnc1-c1cn(C)nc1C(F)(F)F [Compound 7, 1-[6-(2,2-difluoroethoxy)-5-(trifluoromethyl)-3-pyridyl]-3-[[5-methyl-6-[1-methyl-3-(trifluoromethyl)pyrazol-4-yl]pyridazin-3-yl]methyl]urea]	≥ 19.8	≥ 19.8	330	17.8
Cc1cc(CNC(=O)Nc2cnc(OCC(F)F)c(Cl)c2)nnc1-c1cn(C)nc1C(F)(F)F [Compound 9, 1-[5-chloro-6-(2,2-difluoroethoxy)-3-pyridyl]-3-[[5-methyl-6-[1-methyl-3-(trifluoromethyl)pyrazol-4-yl]pyridazin-3-yl]methyl]urea]	≥ 19.8	≥ 19.8	532	23.7
Cc1cc(CNC(=O)Nc2cc(Cl)nc(OCC(F)F)c2)nnc1-c1cn(C)nc1C(F)(F)F [Compound 17, 1-[2-chloro-6-(2,2-difluoroethoxy)-4-pyridyl]-3-[[5-methyl-6-[1-methyl-3-(trifluoromethyl)pyrazol-4-yl]pyridazin-3-yl]methyl]urea]	6.61	4.94	36.1	8.6
Cc1cc(CNC(=O)Nc2cnc(Cl)c(OCC(F)F)c2)nnc1-c1cn(C)nc1C(F)(F)F [Compound 23, 1-[6-chloro-5-(2,2-difluoroethoxy)-3-pyridyl]-3-[[5-methyl-6-[1-methyl-3-(trifluoromethyl)pyrazol-4-yl]pyridazin-3-yl]methyl]urea]	≥ 19.8	≥ 19.8	74.5	10.6
COCCOc1cc(NC(=O)NCc2cc(C)c(-c3cn(C)nc3C(F)(F)F)nn2)cc(C(F)(F)F)n1 [Compound 25, 1-[2-(2-methoxyethoxy)-6-(trifluoromethyl)-4-pyridyl]-3-[[5-methyl-6-[1-methyl-3-(trifluoromethyl)pyrazol-4-yl]pyridazin-3-yl]methyl]urea]	≥ 19.8	≥ 19.8	2030	792
Cc1cc(CNC(=O)Nc2cc(OC3CCOC3)nc(C(F)(F)F)c2)nnc1-c1cn(C)nc1C(F)(F)F (stereo not shown) [Compound 26, 1-[[5-methyl-6-[1-methyl-3-(trifluoromethyl)pyrazol-4-yl]pyridazin-3-yl]methyl]-3-[2-tetrahydrofuran-3-yloxy-6-(trifluoromethyl)-4-pyridyl]urea]	≥ 19.8	≥ 19.8	770	110
Cc1cc(CNC(=O)Nc2cc(OCC(F)F)nc(C3CC3)c2)nnc1-c1cn(C)nc1C(F)(F)F [Compound 29, 1-[2-cyclopropyl-6-(2,2-difluoroethoxy)-4-pyridyl]-3-[[5-methyl-6-[1-methyl-3-(trifluoromethyl)pyrazol-4-yl]pyridazin-3-yl]methyl]urea]			275	27.3
Cc1cc(CNC(=O)Nc2cc(Cl)c(F)c(Cl)c2)nnc1-c1cn(C)nc1C(F)(F)F [Compound 32, 1-(3,5-dichloro-4-fluoro-phenyl)-3-[[5-methyl-6-[1-methyl-3-(trifluoromethyl)pyrazol-4-yl]pyridazin-3-yl]methyl]urea]			164	11.1
Cc1cc(CNC(=O)Nc2cc(OCC3CC3(F)F)nc(C(F)(F)F)c2)nnc1-c1cn(C)nc1C(F)(F)F (stereo not shown) [Compound 33, 1-[2-[(2,2-difluoro-cyclopropyl)methoxy]-6-(trifluoromethyl)-4-pyridyl]-3-[[5-methyl-6-[1-methyl-3-(trifluoromethyl)pyrazol-4-yl]pyridazin-3-yl]methyl]urea]			164	37.1
Cc1cc(CNC(=O)Nc2cc(OCC3CCOC3)nc(C(F)(F)F)c2)nnc1-c1cn(C)nc1C(F)(F)F (stereo not shown) [Compound 36]			1800	791
CCOc1nc(C)cc(NC(=O)NCc2cc(C)c(N3C[C@@H](C)O[C@@H](C)C3)nn2)c1C [Compound 95, 1-[[6-[(2R,6S)-2,6-dimethyl-morpholin-4-yl]-5-methyl-pyridazin-3-yl]methyl]-3-(2-ethoxy-3,6-dimethyl-4-pyridyl)urea]	0.809	6.61		

More lines, now with the values ahead:

EC50 [1] [µM]	EC50 [2] [µM]	EC50 (S1PR2) [nM]	EC50 [3] [nM]	SMILES
≥ 19.8	≥ 19.8	281	15	CCOc1ncc(NC(=O)NCc2cc(C)c(-c3cn(C)nc3C(F)(F)F)nn2)cc1C(F)(F)F [Compound 10, 1-[6-ethoxy-5(trifluoromethyl)-3-pyridyl]-3-[[5-methyl-6-[1-methyl-3-(trifluoromethyl)pyrazol-4-yl]pyridazin-3-yl]methyl]urea]
≥ 19.8	6.61	91.6	9.2	CCOc1cc(NC(=O)NCc2cc(C)c(-c3cn(COC)nc3C(F)(F)F)nn2)cc(Cl)n1 [Compound 15]
2.1	3.87	15.2	8.8	CCOc1nc(Cl)cc(NC(=O)NCc2cc(C)c(-c3cn(C)nc3C(F)(F)F)nn2)c1C [Compound 20, 1-(6-chloro-2-ethoxy-3-methyl-4-pyridyl)-3-[[5-methyl-6-[1-methyl-3-(trifluoromethyl)pyrazol-4-yl]pyridazin-3-yl]methyl]urea]
≥ 19.8	6.61	86	17.3	CCOc1cc(NC(=O)NCc2cc(C)c(-c3cn(C)nc3C(F)(F)F)nn2)cc(C2CC2)n1 [Compound 22, 1-(2-cyclopropyl-6-ethoxy-4-pyridyl)-3-[[5-methyl-6-[1-methyl-3-(trifluoromethyl)pyrazol-4-yl]pyridazin-3-yl]methyl]urea]
≥ 19.8	≥ 19.8	53.8	8.7	CCOc1cc(NC(=O)NCc2cc(C)c(-c3cn(C)nc3C(F)(F)F)nn2)cnc1Cl [Compound 24, 1-(6-chloro-5-ethoxy-3-pyridyl)-3-[[5-methyl-6-[1-methyl-3-(trifluoromethyl)pyrazol-4-yl]pyridazin-3-yl]methyl]urea]
		1650	3140	CCOc1cc(NC(=O)NCc2cc(C)c(-c3cn(C)nc3C(F)(F)F)nn2)nc(OCC)n1 [Compound 31, 1-(2,6-diethoxy-pyrimidin-4-yl)-3-[[5-methyl-6-[1-methyl-3-(trifluoromethyl)pyrazol-4-yl]pyridazin-3-yl]methyl]urea]
